Test results from patent US7528106B2, “Compositions and methods for treatment of neovascular diseases” (The Scripps Research Institute, priority 2004, dated 2009).
Several values for one entry are separate records, joined by “and”; a condition that tells them apart may be missing. Identical values can stand only once.

Test system: deep retinal vascular network formation in neonatal Balb/C mice
Assay: Neonatal mouse retinal angiogenesis model
Format: in vivo
Excerpt: Description of the Model. Immediately after birth (postnatal day zero; “P0”), retinal vasculature is virtually absent in the mouse. By four weeks after birth (P28) the retina has attained an adult pattern of retinal vessels coincident with the onset of vision. Physiological neovascularization of the retina occurs during this period via a stereotypical, biphasic developmental pattern of angiogenesis. During the primary phase of retinal vascular development, spoke-like peripapillary vessels grow radially from the central retinal artery and vein, becoming progressively interconnected by a capillary plexus that forms between them. This “inner retinal plexus” grows in area, volume and complexity, centrifugally, as a monolayer within the nerve fiber layer during the first seven to ten days following birth.
The second phase of retinal vessel formation begins between postnatal days 7 (P7) and 10 (P10) when collateral branches sprout from capillaries of the superficial plexus and penetrate into the retina where their tips branch and anastamose laterally to form a planar “deep vascular plexus”. While the deep vascular plexus is in place by P14, it undergoes extensive remodeling from P14 to P21. It is of interest to note that the formation of these vascular networks in the neonatal mouse are strikingly similar to the events occurring in the third trimester human fetus.
Advantages and Quantification of the Model. The reproducibility of the murine retinal development process and its easy accessibility in neonatal animals provide an opportunity to assess the efficacy of antiangiogenic compounds in a physiologically relevant model of angiogenesis. Additional advantages of the neonatal mouse model are the ability to qualitatively and quantitatively evaluate the angiostatic effect of putative antagonists of angiogenesis. Angiostatic activity was evaluated based upon the degree of angiogenesis in the deep, outer retinal vascular layer (secondary layer) that develops between P8 and P12. The appearance of the inner blood vessel network (primary layer) was evaluated for normal development and signs of toxicity.
Preparation of Compositions. Peptidomimetic integrin signaling inhibitor Compound (1) is solubilized in PBS at a concentration of about 20 mg/ml in PBS (1× concentration). T2-TrpRS is solubilized in PBS at a concentration of about 0.5 mg/ml (1× concentration). VEGF aptamer (pegaptanib sodium; Compound (2)) is solubilized in PBS at a concentration of about 2 mg/ml (1× concentration) to achieve an injection of approximately 1 μg/eye at 1× concentration. For all combination assays the compounds were prepared at 2 or 3 times the 1× concentration of each material and then combined to produce a final solution containing each individual compound at the same concentration as was used alone (e.g., 1×, 0.5×, 0.25× or 0.1×, as the case may be). For all assays, a single injection of 0.5 μl of PBS solutions of the drugs was administered intravitreally regardless of the number of compounds being injected. As used herein, the term “0.1×” refers to one tenth of the 1× concentration of a given material, “0.25×” refers to one quarter of the 1× concentration of a given material, “0.5×” refers to one half of the 1× concentration of a given material, and so forth for similar designations.
An in vivo angiogenesis assay in the neonatal mouse (Balb/C, The Jackson Laboratory, Bar Harbor, Me.) was used to evaluate the angiostatic activity of integrin signaling inhibitor Compound (1), T2-TrpRS, and VEGF aptamer Compound (2). Intravitreous injection and retina isolation was performed with a dissecting microscope (SMZ 645, Nikon, Japan). […] The samples (0.5 μl) were injected with a Hamilton syringe fitted with a 32-gauge needle (Hamilton Company, Reno, Nev.). The injection was made between the equator and the corneal limbus. During injection, the location of the needle tip was monitored by direct visualization to determine that it was in the vitreal cavity. […]

[1] = Ex 1, 0.1× (1×=20 mg/ml), intravitreal P8, read P12
[2] = Ex 5, 0.5× (1×=20 mg/ml), intravitreal P4, read P12
[3] = Ex 6, 0.5× (1×=20 mg/ml), intravitreal P4, read P12
[4] = Ex 7, 0.5× (1×=20 mg/ml), intravitreal P4, read P12
[5] = Ex 9, 1× of each (Comp. (1) 20, Comp. (2) 2, T2-TrpRS 0.5 mg/ml), intravitreal P4, read P12
[6] = Table 12, composite data from the Examples, 1×-2×
[7] = Table 13A, 5-10 μg per eye, intravitreal P7, read P12
[8] = Table 13C low dosing, 0.1x (integrin ant. 1.0 μg, VEGF apt. 0.20 μg, T2-TrpRS 0.025 μg)

For `CC(C)(C)COC(=O)N[C@@H](Cc1ccc2c(c1)NC(=O)[C@@H](CCC(=O)Nc1ncc[nH]1)O2)C(=O)[O-].[Na+]` [Compound (1)], the inhibition of neovascularization (0.1× concentrations (1 μg/eye integrin antagonist, 0.2 μg/eye VEGF aptamer, 0.025 μg/eye T2-TrpRS)) was “negligible”, the “% of eyes with 0-10% inhibition of deep vascular layer” value [1] was 40% and the “% of eyes with 10-25% inhibition of deep vascular layer” value [1] was 0.5%. The “% of eyes with 25-50% inhibition of deep vascular layer” value [1] was 20%, the “% of eyes with 50-75% inhibition of deep vascular layer” value [1] was 20% and the “% of eyes with 75-100% inhibition of deep vascular layer” value [1] was 20%. For the same compound, the “% of eyes with 0-10% inhibition of deep vascular layer” value [2] was 50%, the “% of eyes with 10-25% inhibition of deep vascular layer” value [2] was 33.3% and the “% of eyes with 25-50% inhibition of deep vascular layer” value [2] was 16.7%. The “% of eyes with 50-75% inhibition of deep vascular layer” value [2] was 0%, the “% of eyes with 75-100% inhibition of deep vascular layer” value [2] was 0% and the “% of eyes with 100% inhibition of deep vascular layer” value [2] was 0%. For the same compound, the “% of eyes with >95% inhibition of deep vascular layer” value [2] was 0%, the “% of eyes with 0-10% inhibition of deep vascular layer” value [3] was 50% and the “% of eyes with 10-25% inhibition of deep vascular layer” value [3] was 12.5%. For the same compound, the “% of eyes with 25-50% inhibition of deep vascular layer” value [3] was 12.5%, the “% of eyes with 50-75% inhibition of deep vascular layer” value [3] was 12.5% and the “% of eyes with 75-100% inhibition of deep vascular layer” value [3] was 12.5%. For the same compound, the “% of eyes with 100% inhibition of deep vascular layer” value [3] was 0%, the “% of eyes with >95% inhibition of deep vascular layer” value [3] was 0% and the “% of eyes with 0-10% inhibition of deep vascular layer” value [4] was 12.5%. The “% of eyes with 10-25% inhibition of deep vascular layer” value [4] was 25%, the “% of eyes with 25-50% inhibition of deep vascular layer” value [4] was 12.5% and the “% of eyes with 50-75% inhibition of deep vascular layer” value [4] was 12.5%. For the same compound, the “% of eyes with 75-100% inhibition of deep vascular layer” value [4] was 37.5%, the “% of eyes with 100% inhibition of deep vascular layer” value [4] was 0% and the “% of eyes with >95% inhibition of deep vascular layer” value [4] was 0%. The “% of eyes with 0-10% inhibition of deep vascular layer” value [5] was 25%, the “% of eyes with 10-25% inhibition of deep vascular layer” value [5] was 12.5% and the “% of eyes with 25-50% inhibition of deep vascular layer” value [5] was 12.5%. The “% of eyes with 50-75% inhibition of deep vascular layer” value [5] was 37.5%, the “% of eyes with 75-100% inhibition of deep vascular layer” value [5] was 12.5% and the “% of eyes with 100% inhibition of deep vascular layer” value [5] was 0%. For the same compound, the “% of eyes with >95% inhibition of deep vascular layer” value [5] was 0%, the “% of mice with 0-10% inhibition of deep vascular layer” value [6] was 33.3% and the “% of mice with 10-25% inhibition of deep vascular layer” value [6] was 20%. For the same compound, the “% of mice with 25-50% inhibition of deep vascular layer” value [6] was 13.3%, the “% of mice with 50-75% inhibition of deep vascular layer” value [6] was 16.7% and the “% of mice with 75-100% inhibition of deep vascular layer” value [6] was 16.7%. The “% of mice with 100% inhibition of deep vascular layer” value [6] was 0%, the “% of mice with >95% inhibition of deep vascular layer” value [6] was 0% and the “Percentage of retinas with 0-10% neovascular inhibition” value [7] was 33.3%. The “Percentage of retinas with 10-25% neovascular inhibition” value [7] was 20.0%, the “Percentage of retinas with 25-50% neovascular inhibition” value [7] was 13.3% and the “Percentage of retinas with 50-75% neovascular inhibition” value [7] was 16.7%. For the same compound, the “Percentage of retinas with 100% neovascular inhibition” value [7] was 0.0%, the “Percentage of retinas with >75% neovascular inhibition” value [7] was 16.7% and the “Percentage of retinas with >90% neovascular inhibition” value [7] was 0.0%. The “Percentage of retinas with 0-10% neovascular inhibition” value [8] was 90%, the “Percentage of retinas with 10-25% neovascular inhibition” value [8] was 10% and the “Percentage of retinas with 25-50% neovascular inhibition” value [8] was 0%. For the same compound, the “Percentage of retinas with 50-75% neovascular inhibition” value [8] was 0%, the “Percentage of retinas with 100% neovascular inhibition” value [8] was 0% and the “Percentage of retinas with >75% neovascular inhibition” value [8] was 0%. The “Percentage of retinas with >90% neovascular inhibition” value [8] was 0%, the optimal effective dose (dosing experiments, bell-shaped efficacy curve, listed as integrin antagonist) was 5-10 μg per eye and 10-20 nmoles per eye and the “retinas that exhibited over 75% inhibition” value (monotherapy at optimal dose) was 17%. For the same compound, the “retinas unaffected by injection” value (monotherapy at the maximum individual dose) was “around 35%”.
